This experiment relates to P388 leukemia ip, CD2F1 mice, survival T/C. As to the kind of experiment: NCI In Vivo Anticancer Drug Screen. Data for tumor model P388 Leukemia (intraperitoneal) in CD2F1 (CDF1) mice. The settings on record: endpoint: median survival time, higher = longer survival. The method, boiled down:
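Mice carrying the transplanted tumor received test compound or vehicle. Survival was recorded in each group, and the value is the treated-group measurement divided by that of the vehicle-treated control group.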

Where [1] appears, read: dose: 12.5 mg/kg/injection, schedule: Q01DX005 (ip), vehicle: Klucel (hydroxypropylcellulose) (HPC).
The mark [2] stands for this setting: dose: 25.0 mg/kg/injection, schedule: Q01DX005 (ip), vehicle: Klucel (hydroxypropylcellulose) (HPC).
[3] abbreviates: dose: 50.0 mg/kg/injection, schedule: Q01DX005 (ip), vehicle: Klucel (hydroxypropylcellulose) (HPC).
The mark [4] stands for this setting: dose: 50.0 mg/kg/injection, schedule: Q01DX009 (ip), vehicle: saline.
Setting [5] is: dose: 100.0 mg/kg/injection, schedule: Q01DX009 (ip), vehicle: saline.
The mark [6] stands for this setting: dose: 200.0 mg/kg/injection, schedule: Q01DX009 (ip), vehicle: saline.
[7] abbreviates: dose: 400.0 mg/kg/injection, schedule: Q01DX009 (ip), vehicle: saline.
Setting [8] is: dose: 50.0 mg/kg/injection, schedule: Q01DX005 (ip), vehicle: saline with Tween-80.
[9] abbreviates: dose: 100.0 mg/kg/injection, schedule: Q01DX001 (ip), vehicle: saline with Tween-80.
The mark [10] stands for this setting: dose: 200.0 mg/kg/injection, schedule: Q01DX001 (ip), vehicle: saline with Tween-80.
Setting [11] is: dose: 400.0 mg/kg/injection, schedule: Q01DX001 (ip), vehicle: saline with Tween-80.
The mark [12] stands for this setting: dose: 50.0 mg/kg/injection, schedule: Q01DX005 (ip), vehicle: saline.
[13] abbreviates: dose: 100.0 mg/kg/injection, schedule: Q01DX005 (ip), vehicle: saline.
Setting [14] is: dose: 25.0 mg/kg/injection, schedule: Q01DX009 (ip), vehicle: saline.

Several values for one entry are separate records, joined by “and”; a condition that tells them apart may be missing. Identical values can stand only once. Inconclusive results and toxic doses are left out.

In PubChem BioAssay AID330 (DTP/NCI, 2004) one finds T/C data, which are given here for 22 compounds.

For `O=C1C2CC34CCCN5CC1C1(c6ccccc6NC21CC3)C54` (centres undefined), the T/C under setting [1] is 103 % of control, the T/C under setting [2] was 98 % of control and the T/C under setting [3] is 103 % of control.
As for `CCOC(=O)[C]1([Sn]([CH3])([CH3])[CH3])N=NC(C(=O)OC)=C1C(=O)OC` (centres undefined), the T/C runs as follows: (dose: 0.78 mg/kg/injection, schedule: Q01DX009 (ip), vehicle: saline) 98 % of control; (dose: 1.56 mg/kg/injection, schedule: Q01DX009 (ip), vehicle: saline) 89 % of control.
For `[O-][n+]1c2ccccc2cc2c1c1ccccc1n2O`, the T/C reads like this: under setting [1], 113 % of control; under setting [2], 107 % of control; under setting [3], 106 % of control and 93 % of control.
With `O=C1NC(CO)C(=O)NC1CO` (centres undefined), the T/C (dose: 12.5 mg/kg/injection, schedule: Q01DX009 (ip), vehicle: distilled water + Tween-80) was 90 % of control; the T/C (dose: 25.0 mg/kg/injection, schedule: Q01DX009 (ip), vehicle: distilled water + Tween-80) was 92 % of control; the T/C (dose: 50.0 mg/kg/injection, schedule: Q01DX009 (ip), vehicle: distilled water + Tween-80) was 90 % of control; the T/C under setting [4] was 98 % of control; the T/C (dose: 50.0 mg/kg/injection, schedule: Q04DX003 (ip), vehicle: saline with Tween-80) was 100 % of control; the T/C (dose: 100.0 mg/kg/injection, schedule: Q01DX009 (ip), vehicle: distilled water + Tween-80) was 93 % of control. For the same compound, the T/C by setting is: under setting [5], 95 % of control; (dose: 100.0 mg/kg/injection, schedule: Q04DX003 (ip), vehicle: saline with Tween-80) 100 % of control; (dose: 200.0 mg/kg/injection, schedule: Q01DX009 (ip), vehicle: distilled water + Tween-80) 90 % of control; under setting [6], 98 % of control; (dose: 200.0 mg/kg/injection, schedule: Q04DX003 (ip), vehicle: saline with Tween-80) 99 % of control; (dose: 400.0 mg/kg/injection, schedule: Q01DX009 (ip), vehicle: distilled water + Tween-80) 90 % of control. The T/C under setting [7] was 104 % of control and the T/C (dose: 400.0 mg/kg/injection, schedule: Q04DX003 (ip), vehicle: saline with Tween-80) was 99 % of control.
Take `c1c[nH]c(C23CC4CC(CC(C4)C2)C3)n1`: the T/C (dose: 12.5 mg/kg/injection, schedule: Q01DX005 (ip), vehicle: saline with Tween-80) was 100 % of control; the T/C (dose: 25.0 mg/kg/injection, schedule: Q01DX005 (ip), vehicle: saline with Tween-80) is 100 % of control; the T/C under setting [8] was 110 % of control and 94 % of control.
As to `COc1ccc2sc(-c3ccccc3)cc(=O)c2c1CCl`, the T/C is, setting by setting: under setting [9], 94 % of control; under setting [10], 97 % of control; under setting [11], 100 % of control.
As to `NCCc1ccc(N)cc1`, the T/C is 100 % of control and 105 % of control under setting [4]; 100 % of control and 96 % of control under setting [5]; 86 % of control under setting [6].
For `C=CC[n+]1cc2c3ccccc3c(N)cc2c2ccccc21`, the T/C was 107 % of control (dose: 1.56 mg/kg/injection, schedule: Q04DX003 (ip), vehicle: water); 116 % of control (dose: 3.13 mg/kg/injection, schedule: Q04DX003 (ip), vehicle: water); 114 % of control (dose: 6.25 mg/kg/injection, schedule: Q04DX003 (ip), vehicle: water); 106 % of control (dose: 12.5 mg/kg/injection, schedule: Q04DX003 (ip), vehicle: other); 109 % of control (dose: 12.5 mg/kg/injection, schedule: Q04DX003 (ip), vehicle: water).
Take `COc1cc(/C=C\C=O)cc(OC)c1OC`: the T/C by setting is: (dose: 100.0 mg/kg/injection, schedule: Q04DX002 (ip), vehicle: saline with Tween-80) 99 % of control; (dose: 200.0 mg/kg/injection, schedule: Q04DX002 (ip), vehicle: saline with Tween-80) 110 % of control; (dose: 400.0 mg/kg/injection, schedule: Q04DX002 (ip), vehicle: saline with Tween-80) 108 % of control.
Regarding `COc1cc(NCCN)c2ncsc2c1`, the T/C under setting [12] was 100 % of control and the T/C under setting [13] was 102 % of control.
Consider `Brc1cccc2[s+]snc12`, for which the T/C under setting [8] is 101 % of control; the T/C (dose: 100.0 mg/kg/injection, schedule: Q01DX005 (ip), vehicle: saline with Tween-80) was 105 % of control; the T/C (dose: 200.0 mg/kg/injection, schedule: Q01DX005 (ip), vehicle: saline with Tween-80) was 97 % of control.
Regarding `Cc1cc(NCCCCCCCCNc2cc(C)nc3cc(N)ccc23)c2ccc(N)cc2n1`, the T/C (dose: 0.78 mg/kg/injection, schedule: Q01DX009 (ip), vehicle: water) was 119 % of control and the T/C (dose: 1.56 mg/kg/injection, schedule: Q01DX009 (ip), vehicle: water) was 123 % of control.
As to `CC1(C)N=C(N)N=C(N)N1NC(=O)c1cccc(Cl)c1`, the T/C is 110 % of control (dose: 50.0 mg/kg/injection, schedule: Q04DX003 (ip), vehicle: saline); 100 % of control (dose: 100.0 mg/kg/injection, schedule: Q04DX003 (ip), vehicle: saline); 105 % of control (dose: 200.0 mg/kg/injection, schedule: Q04DX003 (ip), vehicle: saline).
With `CC1=CC(=O)C(O)=C/C1=C\C=C\c1ccccc1`, the T/C is, setting by setting: (dose: 2.5 mg/kg/injection, schedule: Q01DX009 (ip), vehicle: saline with Tween-80) 110 % of control; (dose: 5.0 mg/kg/injection, schedule: Q01DX009 (ip), vehicle: saline with Tween-80) 104 % of control; (dose: 10.0 mg/kg/injection, schedule: Q01DX009 (ip), vehicle: saline with Tween-80) 103 % of control.
For the compound `N[C@H]1c2ccsc2C(=O)[C@H]1O`, the T/C runs as follows: (dose: 60.0 mg/kg/injection, schedule: Q01DX005 (ip), vehicle: saline) 153 % of control; (dose: 240.0 mg/kg/injection, schedule: Q01DX005 (ip), vehicle: saline) 155 % of control.
`CCN(C)N=Nc1cccnc1`: the T/C is 103 % of control and 92 % of control and 97 % of control (dose: 12.5 mg/kg/injection, schedule: Q01DX009 (ip), vehicle: saline); 100 % of control and 102 % of control and 92 % of control under setting [14]; 103 % of control and 111 % of control and 91 % of control under setting [4]; 107 % of control and 110 % of control under setting [5].
As for `C=CCCc1ccccc1/C=N/NS(=O)(=O)c1ccc(C)cc1`, the T/C under setting [9] is 97 % of control, the T/C under setting [10] was 88 % of control and the T/C under setting [11] was 101 % of control.
Take `C/C=C(\C)C(=O)OC1C(C)=C2C(C1OC(=O)CCCC)C(C)(OC(C)=O)CC(OC(=O)CCCC)C1(O)C2OC(=O)C1(C)O` (centres undefined): the T/C by setting is: (dose: 0.37 mg/kg/injection, schedule: Q01DX009 (ip), vehicle: Klucel (hydroxypropylcellulose) (HPC)) 92 % of control; (dose: 0.75 mg/kg/injection, schedule: Q01DX009 (ip), vehicle: Klucel (hydroxypropylcellulose) (HPC)) 101 % of control; (dose: 1.5 mg/kg/injection, schedule: Q01DX009 (ip), vehicle: Klucel (hydroxypropylcellulose) (HPC)) 100 % of control; (dose: 3.0 mg/kg/injection, schedule: Q01DX009 (ip), vehicle: Klucel (hydroxypropylcellulose) (HPC)) 100 % of control.
`N#CCC(=O)NCc1ccncc1`: the T/C by setting is: under setting [14], 110 % of control; under setting [4], 100 % of control; under setting [5], 108 % of control; under setting [6], 110 % of control; under setting [7], 101 % of control.
`COc1cc2cnc(-c3ccncc3)c(N)c2cc1OC`: the T/C is 100 % of control (dose: 100.0 mg/kg/injection, schedule: Q04DX003 (ip), vehicle: suspension in saline); 93 % of control (dose: 200.0 mg/kg/injection, schedule: Q04DX003 (ip), vehicle: suspension in saline); 89 % of control (dose: 400.0 mg/kg/injection, schedule: Q04DX003 (ip), vehicle: suspension in saline).
In the case of `COCC1OC1COC` (centres undefined), the T/C is 107 % of control under setting [12]; 104 % of control under setting [13]; 106 % of control (dose: 200.0 mg/kg/injection, schedule: Q01DX005 (ip), vehicle: saline).
Take `CC(=O)NCCn1ccnc1`: the T/C under setting [4] is 95 % of control, the T/C under setting [5] was 102 % of control and the T/C under setting [6] was 102 % of control.
